Source: patent US20130217664A1, “NOVEL COMPOUNDS USEFUL FOR THE TREATMENT OF DEGENERATIVE AND INFLAMMATORY DISEASES” (priority 2012, published 2013)
Read-outs that look alike come from different tables or passages of the source.

Tests used:
[1] = molecular target: T1, human JAK3 (Homo sapiens, UniProt P52333); experiment: JAK3 inhibition assay; format: biochemical; conditions: recombinant human JAK3 catalytic domain; polyGT substrate
T1 construct: catalytic domain (amino acids 781-1124; catalog number PV3855); purchased Invitrogen PV3855
T1 sequence (P52333 781-1124): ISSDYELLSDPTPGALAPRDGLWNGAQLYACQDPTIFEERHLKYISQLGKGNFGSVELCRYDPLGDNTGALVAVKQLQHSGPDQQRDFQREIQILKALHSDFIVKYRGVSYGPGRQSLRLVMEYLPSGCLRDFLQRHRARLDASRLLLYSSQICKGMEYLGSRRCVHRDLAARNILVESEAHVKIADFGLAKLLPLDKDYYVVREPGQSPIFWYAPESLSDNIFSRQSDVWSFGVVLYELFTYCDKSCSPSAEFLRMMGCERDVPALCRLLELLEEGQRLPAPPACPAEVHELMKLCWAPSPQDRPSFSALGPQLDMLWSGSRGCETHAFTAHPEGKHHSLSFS
How it was run: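 Radiometric kinase assay: 0.5 ng JAK3 with 2.5 μg polyGT in Tris pH 7.5/MgCl2 buffer, 1 μM ATP plus 0.25 μCi 33P-γ-ATP, 1% DMSO, 45 min at 30 °C, stopped with phosphoric acid.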

[2] = molecular target: T2, human TYK2 (Homo sapiens, UniProt P29597); experiment: TYK2 inhibition assay; format: biochemical; conditions: recombinant human TYK2 catalytic domain, polyGT substrate
T2 construct: catalytic domain (amino acids 871-1187; catalog number 08-147); purchased Carna Biosciences 08-147
T2 sequence (P29597 871-1187): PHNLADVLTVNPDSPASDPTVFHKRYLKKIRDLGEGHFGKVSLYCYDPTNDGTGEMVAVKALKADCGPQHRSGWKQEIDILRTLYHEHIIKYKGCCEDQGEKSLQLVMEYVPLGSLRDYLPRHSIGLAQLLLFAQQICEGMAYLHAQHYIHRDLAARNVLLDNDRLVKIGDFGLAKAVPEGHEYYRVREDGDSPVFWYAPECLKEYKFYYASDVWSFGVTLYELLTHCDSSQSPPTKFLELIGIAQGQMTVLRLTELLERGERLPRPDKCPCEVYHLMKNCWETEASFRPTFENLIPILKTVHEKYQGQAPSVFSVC
How it was run: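 Radiometric kinase reaction run 90 min at 30 °C, stopped with phosphoric acid, washed and scintillation-counted.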

[3] = tested on: pSTAT1(2)-luciferase reporter in HeLa cells triggered with human OSM; experiment: JAK-STAT signalling assay; format: cell-based; conditions: read-out: JAK-STAT IC50
How it was run: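 Compound added 60 min before 33 ng/mL (final) human OSM; after overnight stimulation at 37 °C, luciferase signal from a transiently transfected pSTAT1(2) reporter in HeLa cells was read, with LacZ as internal control. EC50 derived from percent-inhibition dose-response curves.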

[4] = Homo sapiens, HeLa, HeLa cells, pSTAT1(2)-luciferase reporter, human OSM 33 ng/mL
[5] = HeLa cells, pSTAT1(2)-luciferase reporter, human OSM 33 ng/mL

| SMILES | IC50 [1] | IC50 [2] | IC50 ([3]; Homo sapiens, HeLa) | IC50 [3, 4] | IC50 [3, 5] |
| --- | --- | --- | --- | --- | --- |
| CCc1ccccc1N(CC)c1cc2c(cn1)ncn2C [Compound 34, N-Ethyl-N-(2-ethylphenyl)-1-methyl-1H-imidazo[4,5-c]pyridin-6-amine] | 501 to 1000 nM | 0.01 to 100 nM | > 1000 nM |  |  |
| CCc1ccc(C(=O)NC(C)(C)C)cc1N(C)c1cc2c(cn1)ncn2C [Compound 123, N-tert-butyl-4-ethyl-3-(methyl(1-methyl-1H-imidazo[4,5-c]pyridin-6-yl)amino)benzamide] | > 1000 nM | > 1000 nM |  | > 1000 nM |  |
| CCc1cc(C#N)cc(F)c1N(C)c1cc2c(cn1)ncn2C [Compound 322, 3-Ethyl-5-fluoro-4-[methyl-(1-methyl-M-imidazo[4,5-c]pyridin-6-yl)-amino]-benzonitrile] | > 1000 nM | 101 to 500 nM |  | > 1000 nM |  |
| COc1cc(-c2c(C)nn(C)c2C)ncc1N(C)c1cc2c(cn1)ncn2C [Compound 312] | > 1000 nM | > 1000 nM |  |  | > 1000 nM |
| CCc1cc(C(=O)NCC#N)ccc1N(C)c1cc2c(cn1)ncn2C [Compound 120, N-(cyanomethyl)-3-ethyl-4-(methyl(1-methyl-1H-imidazo[4,5-c]pyridin-6-yl)amino)benzamide] | 101 to 500 nM | 101 to 500 nM |  | > 1000 nM |  |
| CCc1cc(C(C)O)ccc1N(C)c1cc2c(cn1)ncn2C (stereo not drawn) [Compound 101, 1-(3-Ethyl-4-(methyl(1-methyl-1H-imidazo[4,5-c]pyridin-6-yl)amino)phenyl)ethanol] | 101 to 500 nM | 0.01 to 100 nM |  | 1 to 500 nM |  |
| CN(c1cc2c(cn1)ncn2C)c1ccccc1OC(F)F [Compound 39, N-(2-(difluoromethoxy)phenyl)-N,1-dimethyl-1H-imidazo[4,5-c]pyridin-6-amine] | 501 to 1000 nM | 501 to 1000 nM |  | > 1000 nM |  |
| Cc1cc(O)ccc1N(C)c1cc2c(cn1)ncn2C [Compound 38, 3-Methyl-4-(methyl(1-methyl-1H-imidazo[4,5-c]pyridin-6-yl)amino)phenol] | 501 to 1000 nM | 101 to 500 nM |  | > 1000 nM |  |
| CCc1cc(C(=O)OC)ccc1N(C)c1cc2c(cn1)ncn2C [Compound 80, Methyl 3-ethyl-4-(methyl(1-methyl-1H-imidazo[4,5-c]pyridin-6-yl)amino)benzoate] | > 1000 nM | 101 to 500 nM |  | > 1000 nM |  |
| CCc1cc(C2CN(S(=O)(=O)C(C)C)C2)ncc1N(C)c1cc2c(cn1)ncn2C [Compound 330, {4-Ethyl-6-[1-(propane-2-sulfonyl)-azetidin-3-yl]-pyridin-3-yl}-methyl-(1-methyl-1H-imidazo[4,5-c]pyridin-6-yl)-amine] | > 1000 nM | > 1000 nM |  |  | > 1000 nM |
| CCc1ccc(F)cc1N(C)c1cc2c(cn1)ncn2C [Compound 84, N-(2-ethyl-5-fluorophenyl)-N,1-dimethyl-1H-imidazo[4,5-c]pyridin-6-amine] | 501 to 1000 nM | 101 to 500 nM |  | 501 to 1000 nM |  |
| CNC(=O)c1ccc(N(C)c2cc3c(cn2)ncn3C)c(C)c1 [Compound 30, N,3-Dimethyl-4-(methyl(1-methyl-1H-imidazo[4,5-c]pyridin-6-yl)amino)-benzamide] | > 1000 nM | > 1000 nM |  | > 1000 nM |  |
| CCc1cc(-c2ccc(CNC(=O)OC(C)(C)C)s2)ncc1N(C)c1cc2c(cn1)ncn2C [Compound 302] | > 1000 nM | 101 to 500 nM |  |  | > 1000 nM |
| Cc1cc(-c2cnn(C)c2)ccc1N(C)c1cc2c(cn1)ncn2C [Compound 73, N,1-dimethyl-N-(2-methyl-4-(1-methyl-1H-pyrazol-4-yl)phenyl)-1H-imidazo[4,5-c]pyridin-6-amine] | > 1000 nM | 101 to 500 nM |  |  | > 1000 nM |
| CCc1cc(C(=O)NCCC#N)ccc1N(C)c1cc2c(cn1)ncn2C [Compound 86, N-(2-Cyanoethyl)-3-ethyl-4-(methyl(1-methyl-1H-imidazo[4,5-c]pyridin-6-yl)amino)benzamide] | > 1000 nM | 501 to 1000 nM |  | > 1000 nM |  |
| COc1cc(S(=O)(=O)N2CCOCC2)ccc1N(C)c1cc2c(cn1)ncn2C [Compound 315, [2-Methoxy-4-(morpholine-4-sulfonyl)-phenyl]-methyl-(1-methyl-1H-imidazo[4,5-d]pyridin-6-yl)-amine] | > 1000 nM | > 1000 nM |  |  | > 1000 nM |
| COc1ccc(COc2ccc(N(C)c3cc4c(cn3)ncn4C)c(C)c2)cc1 [Compound 33, N-(4-(4-Methoxybenzyloxy)-2-methylphenyl)-N,1-dimethyl-1H-imidazo[4,5-c]pyridin-6-amine] | > 1000 nM | > 1000 nM |  |  | > 1000 nM |
| CCc1cc(-c2cncnc2)ccc1N(C)c1cc2c(cn1)ncn2C [Compound 95, N-(2-ethyl-4-(pyrimidin-5-yl)phenyl)-N,1-dimethyl-1H-imidazo[4,5-c]pyridin-6-amine] | > 1000 nM | 0.01 to 100 nM |  | 501 to 1000 nM |  |
| CCc1cc(C(=O)NCCN(C)C)ccc1N(C)c1cc2c(cn1)ncn2C [Compound 119, N-(2-(dimethylamino)ethyl)-3-ethyl-4-(methyl(1-methyl-1H-imidazo[4,5-c]pyridin-6-yl)amino)benzamide] | > 1000 nM | > 1000 nM |  | > 1000 nM |  |
| CCc1cc(-c2ccsc2)ccc1N(C)c1cc2c(cn1)ncn2C [Compound 127, N-(2-ethyl-4-(thiophen-3-yl)phenyl)-N,1-dimethyl-1H-imidazo[4,5-c]pyridin-6-amine] | 0.01 to 100 nM | 0.01 to 100 nM |  | 1 to 500 nM |  |
| CCc1cc(C2CN(C(C)=O)C2)ncc1N(C)c1cc2c(cn1)ncn2C [Compound 332, 1-(3-{4-Ethyl-5-[methyl-(1-methyl-1H-imidazo[4,5-c]pyridin-6-yl)-amino]-pyridin-2-yl}-azetidin-1-yl)-ethanone] | > 1000 nM | > 1000 nM |  |  | > 1000 nM |
| CCc1cc(O)ccc1N(C)c1cc2c(cn1)ncn2C [Compound 107, 3-ethyl-4-(methyl(1-methyl-1H-imidazo[4,5-c]pyridin-6-yl)amino)phenol] | 101 to 500 nM | 0.01 to 100 nM |  | 501 to 1000 nM |  |
| Cc1c(OCC#N)cccc1N(C)c1cc2c(cn1)ncn2C [Compound 64, 2-(2-methyl-3-(methyl(1-methyl-1H-imidazo[4,5-c]pyridin-6-yl)amino)phenoxy)acetoni-trile] | 101 to 500 nM | 101 to 500 nM |  | > 1000 nM |  |
| CCc1cc(CNC(=O)C(F)F)c(F)cc1N(C)c1cc2c(cn1)ncn2C [Compound 326, N-{5-Ethyl-2-fluoro-4-[methyl-(1-methyl-M-imidazo[4,5-c]pyridin-6-yl)-amino]-benzyl}-2,2-difluoro-acetamide] | 101 to 500 nM | 101 to 500 nM |  | 501 to 1000 nM |  |
| Cc1cc(C(N)=O)ccc1N(C)c1cc2c(cn1)ncn2C [Compound 32, 3-Methyl-4-(methyl(1-methyl-1H-imidazo[4,5-c]pyridin-6-yl)amino)benzamide] | > 1000 nM | > 1000 nM |  | > 1000 nM |  |
| CCc1cc(C2CN(C(=O)C(F)F)C2)ncc1N(C)c1cc2c(cn1)ncn2C [Compound 333, 1-(3-{4-Ethyl-5-[methyl-(1-methyl-1H-imidazo[4,5-c]pyridin-6-yl)-amino]-pyridin-2-yl}-azetidin-1-yl)-2,2-difluoro-ethanone] | 501 to 1000 nM | 501 to 1000 nM |  |  | > 1000 nM |
| CCc1cc(Cn2ccnc2)ccc1N(C)c1cc2c(cn1)ncn2C [Compound 111, N-(4-((1H-imidazol-1-yl)methyl)-2-ethylphenyl)-N,1-dimethyl-1H-imidazo[4,5-c]pyridin-6-amine] | 101 to 500 nM | 101 to 500 nM |  | 501 to 1000 nM |  |
| CCc1cc(C2CN(C(=O)C(F)(F)F)C2)ncc1N(C)c1cc2c(cn1)ncn2C [Compound 334, 1-(3-{4-Ethyl-5-[methyl-(1-methyl-1H-imidazo[4,5-c]pyridin-6-yl)-amino]-pyridin-2-yl}-azetidin-1-yl)-2,2,2-trifluoro-ethanone] | 101 to 500 nM | 501 to 1000 nM |  |  | > 1000 nM |
| Cc1cc(-c2cn[nH]c2)ccc1N(C)c1cc2c(cn1)ncn2C [Compound 71, N,1-Dimethyl-N-(2-methyl-4-(1H-pyrazol-4-yl)phenyl)-1H-imidazo[4,5-c]pyridin-6-amine] | 501 to 1000 nM | 0.01 to 100 nM |  |  | > 1000 nM |
| COc1ccc(S(=O)(=O)N2CCCCC2)cc1N(C)c1cc2c(cn1)ncn2C [Compound 314, [2-Methoxy-5-(piperidine-1-sulfonyl)-phenyl]-methyl-(1-methyl-1H-imidazo[4,5-d]pyridin-6-yl)-amine] | > 1000 nM | > 1000 nM |  |  | > 1000 nM |
